Measured values taken from ChEMBL document CHEMBL1144730, “Novel antibacterial azetidine lincosamides” (Bioorg Med Chem Lett, 2008).
pIC50: −log10 of the molar value. In brackets after ≈: the same amount, converted by molar mass.

What was measured:
Type in all cases: functional
Enterococcus faecalis = experiment: Antibacterial activity against Enterococcus faecalis by broth microdilution method
Bacteroides fragilis = experiment: Antibacterial activity against Bacteroides fragilis by broth microdilution method
Staphylococcus aureus [1] = experiment: Antibacterial activity against macrolide, licosamide and streptogramin resistant Staphylococcus aureus by broth microdilution method
Enterococcus faecium = experiment: Antibacterial activity against Enterococcus faecium by broth microdilution method
Streptococcus pneumoniae = experiment: Antibacterial activity against Streptococcus pneumoniae by broth microdilution method
Staphylococcus aureus [2] = experiment: Antibacterial activity against Staphylococcus aureus by broth microdilution method
Staphylococcus aureus [3] = experiment: Antibacterial activity against Staphylococcus aureus Smith infected iv dosed mouse septicemia model
Escherichia coli = experiment: Inhibition of protein synthesis in Escherichia coli by transcription/translation inhibition assay
Staphylococcus aureus [4] = experiment: Antibacterial activity against Staphylococcus aureus Smith infected po dosed mouse septicemia model

Compound	MIC (Enterococcus faecalis) [µg/mL]	MIC (Bacteroides fragilis) [µg/mL]	MIC (Staphylococcus aureus [1]) [µg/mL]	MIC (Enterococcus faecium) [µg/mL]	MIC (Streptococcus pneumoniae) [µg/mL]	MIC (Staphylococcus aureus [2]) [µg/mL]	ED50 (Staphylococcus aureus [3]) [mg/kg]	pIC50 (Escherichia coli)	ED50 (Staphylococcus aureus [4]) [mg/kg]
CS[C@H]1O[C@H]([C@H](NC(=O)[C@H]2NC[C@@H]2CCC(F)F)[C@H](C)Cl)[C@H](O)[C@H](O)[C@H]1O	2 (≈ 4.62 µM)	1 (≈ 2.31 µM)	> 4	0.5 (≈ 1.15 µM)	0.125 (≈ 0.289 µM)	1 (≈ 2.31 µM)			
CS[C@H]1O[C@H]([C@H](NC(=O)[C@H]2NC[C@@H]2CCC2CCC2)[C@H](C)Cl)[C@H](O)[C@H](O)[C@H]1O	0.25 (≈ 0.572 µM)	0.25 (≈ 0.572 µM)	> 4	0.25 (≈ 0.572 µM)	0.125 (≈ 0.286 µM)	0.25 (≈ 0.572 µM)			
CS[C@H]1O[C@H]([C@H](NC(=O)[C@H]2NC[C@@H]2CCC2CC2)[C@H](C)Cl)[C@H](O)[C@H](O)[C@H]1O	0.25 (≈ 0.591 µM)	0.25 (≈ 0.591 µM)	> 4	0.125 (≈ 0.296 µM)	0.125 (≈ 0.296 µM)	0.25 (≈ 0.591 µM)	3	5.11	
CCCC[C@H]1CN(CCO)[C@@H]1C(=O)N[C@@H]([C@H]1O[C@H](SC)[C@H](O)[C@@H](O)[C@H]1O)[C@H](C)Cl	0.5 (≈ 1.1 µM)	0.5 (≈ 1.1 µM)	> 8	0.25 (≈ 0.549 µM)	0.125 (≈ 0.275 µM)	0.5 (≈ 1.1 µM)			
CS[C@H]1O[C@H]([C@H](NC(=O)[C@H]2NC[C@@H]2CCCC2CC2)[C@H](C)Cl)[C@H](O)[C@H](O)[C@H]1O	0.25 (≈ 0.572 µM)	0.25 (≈ 0.572 µM)	> 4	0.125 (≈ 0.286 µM)	0.06 (≈ 0.137 µM)	0.125 (≈ 0.286 µM)	3.1	5.56	
CCCC[C@H]1CN(C)[C@@H]1C(=O)N[C@@H]([C@H]1O[C@H](SC)[C@H](O)[C@@H](O)[C@H]1O)[C@H](C)Cl	2 (≈ 4.71 µM)	0.125 (≈ 0.294 µM)	> 4	1 (≈ 2.35 µM)	0.5 (≈ 1.18 µM)	1 (≈ 2.35 µM)			
CCC[C@H]1CN[C@@H]1C(=O)N[C@@H]([C@H]1O[C@H](SC)[C@H](O)[C@@H](O)[C@H]1O)[C@H](C)Cl	0.5 (≈ 1.26 µM)	0.5 (≈ 1.26 µM)	> 8	0.5 (≈ 1.26 µM)	0.125 (≈ 0.315 µM)	0.5 (≈ 1.26 µM)		4.89	
CCCCC[C@H]1CN[C@@H]1C(=O)N[C@@H]([C@H]1O[C@H](SC)[C@H](O)[C@@H](O)[C@H]1O)[C@H](C)Cl	0.25 (≈ 0.588 µM)	0.125 (≈ 0.294 µM)	> 8	0.125 (≈ 0.294 µM)	0.03 (≈ 0.0706 µM)	0.06 (≈ 0.141 µM)	1.7	5.95	28
CS[C@H]1O[C@H]([C@H](NC(=O)[C@H]2NC[C@@H]2CC2CC2)[C@H](C)Cl)[C@H](O)[C@H](O)[C@H]1O	1 (≈ 2.45 µM)	0.5 (≈ 1.22 µM)	> 8	0.5 (≈ 1.22 µM)	0.125 (≈ 0.306 µM)	0.5 (≈ 1.22 µM)		4.96	
CS[C@H]1O[C@H]([C@H](NC(=O)[C@H]2NC[C@@H]2CCCC2CCC2)[C@H](C)Cl)[C@H](O)[C@H](O)[C@H]1O	0.06 (≈ 0.133 µM)	0.25 (≈ 0.554 µM)	> 4	0.06 (≈ 0.133 µM)	0.016 (≈ 0.0355 µM)	0.03 (≈ 0.0665 µM)	> 10	5.61	
CCCC[C@H]1CN[C@@H]1C(=O)N[C@@H]([C@H]1O[C@H](SC)[C@H](O)[C@@H](O)[C@H]1O)[C@H](C)Cl	0.125 (≈ 0.304 µM)	0.125 (≈ 0.304 µM)	> 8	0.125 (≈ 0.304 µM)	0.06 (≈ 0.146 µM)	0.125 (≈ 0.304 µM)	1.1	6.44	10.8
CS[C@H]1O[C@H]([C@H](NC(=O)[C@H]2NC[C@@H]2CCC(C)C)[C@H](C)Cl)[C@H](O)[C@H](O)[C@H]1O	0.5 (≈ 1.18 µM)	0.5 (≈ 1.18 µM)	> 8	0.5 (≈ 1.18 µM)	0.125 (≈ 0.294 µM)	0.5 (≈ 1.18 µM)		4.81	
CCC[C@@H]1C[C@@H](C(=O)N[C@@H]([C@H]2O[C@H](SC)[C@H](O)[C@@H](O)[C@H]2O)[C@H](C)Cl)N(C)C1 [CLINDAMYCIN]	0.25 (≈ 0.588 µM)		> 8	0.125 (≈ 0.294 µM)	0.06 (≈ 0.141 µM)	0.125 (≈ 0.294 µM)	2.8		19.9
